Results taken from patent EP1219631A1, “ANTIANDROGEN AGENTS” (CHUGAI SEIYAKU KABUSHIKI KAISHA, priority 1999, dated 2001).
Read-outs that look alike come from different tables or passages of the source.

Key:
human androgen receptor [1] = target: T1, human androgen receptor (Homo sapiens, UniProt P10275); experiment: Androgen receptor reporter gene assay, agonist action (MMTV-Luc, pSG5-hAR and Renilla Luc vectors transfected into HeLa cells, dual-luciferase); type: cell-based; details: for FI5 value: concentration showing a transcriptional activity five times that without compound, tested at 1, 10, 100, 1000 and 10000 nmol/L
T1 construct: expressed in transfected cells; host or cells: HeLa cells
T1 sequence (P10275 1-920): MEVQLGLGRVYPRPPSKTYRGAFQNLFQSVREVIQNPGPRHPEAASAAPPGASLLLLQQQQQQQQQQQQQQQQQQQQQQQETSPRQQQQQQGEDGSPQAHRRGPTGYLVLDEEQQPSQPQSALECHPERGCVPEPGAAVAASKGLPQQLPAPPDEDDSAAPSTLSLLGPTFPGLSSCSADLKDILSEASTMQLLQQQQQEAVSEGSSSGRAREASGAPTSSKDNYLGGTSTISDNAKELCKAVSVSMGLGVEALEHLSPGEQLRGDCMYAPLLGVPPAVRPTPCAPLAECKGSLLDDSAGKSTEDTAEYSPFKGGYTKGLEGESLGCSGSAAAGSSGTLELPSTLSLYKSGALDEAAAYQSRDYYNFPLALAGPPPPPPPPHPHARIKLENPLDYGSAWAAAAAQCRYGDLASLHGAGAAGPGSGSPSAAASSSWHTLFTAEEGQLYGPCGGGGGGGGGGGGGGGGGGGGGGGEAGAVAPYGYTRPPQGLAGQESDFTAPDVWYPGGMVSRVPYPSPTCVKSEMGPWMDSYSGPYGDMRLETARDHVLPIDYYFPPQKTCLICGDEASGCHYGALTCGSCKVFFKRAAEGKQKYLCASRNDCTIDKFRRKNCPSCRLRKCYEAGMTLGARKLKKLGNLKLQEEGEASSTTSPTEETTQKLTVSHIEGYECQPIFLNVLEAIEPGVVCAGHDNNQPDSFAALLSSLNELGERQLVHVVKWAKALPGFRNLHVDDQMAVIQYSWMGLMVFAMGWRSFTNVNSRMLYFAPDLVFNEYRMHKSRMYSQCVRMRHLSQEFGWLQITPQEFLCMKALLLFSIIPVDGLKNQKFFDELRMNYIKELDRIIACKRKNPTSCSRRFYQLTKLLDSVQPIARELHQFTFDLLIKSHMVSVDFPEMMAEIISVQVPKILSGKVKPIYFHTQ
Text: Speaking of the substance of the invention which acts as antagonist against but not as agonist for the androgen receptor, the expression "not acting as agonist" means that in the following androgen receptor gene assay, the transcriptional activity value of the substance at any concentration of 0.1 nmol/L - 10 µmol/L is from one to five times the transcriptional activity value for no addition of the substance which is taken as unity:
Twenty-four hours before transfection, 1.0 x 10^5 HeLa cells (purchased from Dainippon Pharmaceutical Co., Ltd.) are cultured in phenol red free Dulbecco's modified Eagle medium (DMEM) containing 5% of charcoal-treated FBS (DCC-FBS) in 12-well microplates. Five hundred nanograms/well of MMTV-Luc vector (the reporter plasmid of luciferase having mouse tumor long terminal repeats containing the androgen response element: GM-CAT vector (A.T.C.C. No. 67282) purchased from A.T.C.C. provided that the chloramphenicol acetyl transferase gene was replaced by the firefly luciferase gene), 100 ng/well of pSG5-hAR (the expression vector of the human androgen receptor which harbors the androgen receptor gene under the control of SV40 promoter) and 5 ng/well of Renilla Luc vector (a vector for internal standard incorporating the sea pansy luciferase gene) are transfected into the HeLa cells. The transfection is performed in a liquid culture of the phenol red free DMEM using […] of lipofectoamine (GibcoBRL). Nine hours after the transfection, the liquid culture is replaced by phenol red free DMEM/3% DCC-FBS containing 10 µmol/L of a compound of the invention which is represented by the general formula (I) or the substance of the invention which acts as antagonist against but not as agonist for the androgen receptor. The transcriptional activity value is measured 48 hours after the replacement of the liquid culture. Transcriptional activity is measured with a dual-luciferase reporter assay system (Promega). The transcriptional activity value is defined as the value for firefly luciferase divided by the value for sea pansy luciferase. […] 270, pp. 19998-20003, 1995.
(§1) Twenty-four hours before transfection, 1.0 x 10^5 HeLa cells were cultured in phenol red free DMEM/5% DCC-FBS on 12-well microplates. Five hundred nanograms/well of MMTV-Luc vector, 100 ng/well of pSG5-hAR and 5 ng/well of Renilla Luc vector were transfected into the HeLa cells. The transfection was performed in a liquid culture of the phenol red free DMEM using […] of lipofectoamine. […] The transcriptional activity value was measured 48 hours after the replacement of the liquid culture. Transcriptional activity was measured with a dual-luciferase reporter assay system. The transcriptional activity value was calculated as the value for firefly luciferase divided by the value for sea pansy luciferase.
The compound was added at concentrations of 1, 10, 100, 1000 and 10000 nmol/L. Agonist activity = Transcriptional activity when the compound was added/Transcriptional activity when the compound was not added [formula]

human androgen receptor [2] = target: T1, human androgen receptor; experiment: Androgen receptor reporter gene assay, antagonist action against DHT (MMTV-Luc, pSG5/hAR and Renilla Luc vectors transfected into HeLa cells, dual-luciferase); type: cell-based
Method: The expression "acting as antagonist" means that in the following androgen receptor gene assay, the transcriptional activity value of 0.1 nmol/L of dihydrotestosterone (DHT) is inhibited to 0 - 50% at any concentration of 0.1 nmol/L - 10 µmol/L:
Twenty-four hours before transfection, 1.0 x 10^5 HeLa cells are cultured in phenol red free DMEM/5% DCC-FBS on 12-well microplates. Five hundred nanograms/well of MMTV-Luc vector, 100 ng/well of pSG5/hAR and 5 ng/well of Renilla Luc vector are transfected into the HeLa cells. The transfection is performed in a liquid culture of the phenol red free DMEM using […] of lipofectoamine. Nine hours after the transfection, the liquid culture is replaced by phenol red free DMEM/3% DCC-FBS containing 0.1 nmol/L of DHT and […] of a compound of the invention which is represented by the general formula (I) or the substance of the invention which acts as antagonist against but not as agonist for the androgen receptor. The transcriptional activity value is measured 48 hours after the replacement of the liquid culture. Transcriptional activity is measured with a dual-luciferase reporter assay system. The transcriptional activity value is defined as the value for firefly luciferase divided by the value for sea pansy luciferase. […] 270, pp. 19998-20003, 1995.
as §1, with “pSG5/hAR” for “pSG5-hAR”
The compound was added at concentrations of 1, 10, 100, 1000 and 10000 nmol/L and at each of these concentrations, measurement was done in the presence of DHT (0.1 nmol/L). Antagonist activity = Transcriptional activity when the compound was added/Transcriptional activity when the compound was not added x 100 [formula]

[3] = concentration giving 50% decrease in the transcriptional activity of DHT 0.1 nmol/L, tested at 1, 10, 100, 1000 and 10000 nmol/L, read-out: IC50 value

Row | Molecule | IC50 (human androgen receptor [2]) [nM] | IC50 (human androgen receptor [2]; [3]) [nM] | further results
1 | CN(C)C(=O)CCCCCCCCCCC1CC2CC(=O)CCC2(C)C2CCC3(C)C(O)CCC3C12 (stereo not drawn) [Example 52] | 277 | – | FI5 value (human androgen receptor [1]): ND (even when the compound was added at a concentration of 10000 nM, the transcriptional activity of the compound-treated group was less than 5 times the transcriptional activity of the control group, making it impossible to compute the FI5 value)
2 | CN(C)C(=O)CCCOc1cccc(CCCC2CC3CC(=O)CCC3(C)C3CCC4(C)C(O)CCC4C23)c1 (stereo not drawn) [Example 168] | – | 540 | –
3 | CN(C)C(=O)CCCCCCCCCC1CC2CC(=O)CCC2(C)C2CCC3(C)C(O)CCC3C12 (stereo not drawn) [Example 42] | – | 342 | –
4 | CC12CCC3C(C(CCCCCCCC(=O)NCc4ccco4)CC4CC(=O)CCC43C)C1CCC2O (stereo not drawn) [Example 23] | – | 1300 | –
5 | CCCNC(=O)CCCCCCCC1CC2CC(=O)CCC2(C)C2CCC3(C)C(O)CCC3C12 (stereo not drawn) [Example 65] | – | 1830 | –
6 | C[C@]12CCC(=O)C[C@@H]1C[C@@H](CCCCCCCC(=O)NCCO)[C@@H]1[C@@H]2CC[C@]2(C)[C@@H](O)CC[C@@H]12 (stereo in doubt) [Example 64, 17β-hydroxy-7α-[7-{N-(2-hydroxyethyl]-aminocarbonyl}heptyl]-5α-androstan-3-one] | – | 809 | –
7 | CCCN(C)C(=O)CCCCCCCC1CC2CC(=O)CCC2(C)C2CCC3(C)C(O)CCC3C12 (stereo not drawn) [Example 26] | – | 1130 | –
8 | CCNC(=O)CCCCCCC[C@@H]1C[C@H]2CC(=O)CC[C@]2(C)[C@H]2CC[C@]3(C)[C@@H](O)CC[C@H]3[C@H]12 [Example 10] | – | 937 | –
9 | CC12CCC3C(C(CCCc4cccc(OCCCCC(=O)N5CCCC5)c4)CC4CC(=O)CCC43C)C1CCC2O (stereo not drawn) [Example 167] | – | 475 | –
10 | CCN(CC)C(=O)CCCCCCCCCC1CC2CC(=O)CCC2(C)C2CCC3(C)C(O)CCC3C12 (stereo not drawn) [Example 43] | – | 1300 | –
11 | CC12CCC3C(C(CCCCCCCC(=O)NCc4ccccc4)CC4CC(=O)CCC43C)C1CCC2O (stereo not drawn) [Example 73] | – | 1100 | –
12 | CNC(=O)CCCCCCCC1CC2CC(=O)CCC2(C)C2CCC3(C)C(O)CCC3C12 (stereo not drawn) [Example 24] | 477 | – | –
13 | CC12CCC3C(C(CCCCCCCC(=O)NCCc4ccccc4)CC4CC(=O)CCC43C)C1CCC2O (stereo not drawn) [Example 74] | 2040 | – | FI5 value (human androgen receptor [1]): ND (even when the compound was added at a concentration of 10000 nM, the transcriptional activity of the compound-treated group was less than 5 times the transcriptional activity of the control group, making it impossible to compute the FI5 value)
14 | bicaltamide | – | – | transcriptional activity value relative to the case of non-addition (human androgen receptor [1]; Example 1, HeLa cells, 48 hours): more than five times; acting as agonist (human androgen receptor [1]; at a concentration of 10 µmol/L): act as agonist; FI5 value (human androgen receptor [1]): 767 nM; agonist action for the androgen receptor mediated transcriptional activity (human androgen receptor [1]; summary of the results of Example 180): exhibit agonist action
15 | CN(C)C(=O)CCCCCCC[C@@H]1C[C@H]2CC(=O)CC[C@]2(C)[C@H]2CC[C@]3(C)[C@@H](O)CC[C@H]3[C@H]12 [Example 9, 17β-hydroxy-7α-{7-(N,N-dimethylaminocarbonyl)-heptyl}-5α-androstan-3-one] | 451 | – | –
16 | CC12CCC3C(C(CCCCCCCCCC(=O)N4CCOCC4)CC4CC(=O)CCC43C)C1CCC2O (stereo not drawn) [Example 51] | – | 474 | –
17 | CCCCN(C)C(=O)CCCCCCCCCC1CC2CC(=O)CCC2(C)C2CCC3(C)C(O)CCC3C12 (stereo not drawn) [Example 46] | – | 1750 | –
18 | CC(C)NC(=O)CCCCCCCC1CC2CC(=O)CCC2(C)C2CCC3(C)C(O)CCC3C12 (stereo not drawn) [Example 14] | 1980 | – | FI5 value (human androgen receptor [1]): ND (even when the compound was added at a concentration of 10000 nM, the transcriptional activity of the compound-treated group was less than 5 times the transcriptional activity of the control group, making it impossible to compute the FI5 value)
19 | CCCCN(C)C(=O)CCCCCCCC1CC2CC(=O)CCC2(C)C2CCC3(C)C(O)CCC3C12 (stereo not drawn) [Example 18] | 342 | – | –
20 | CCN(CC)C(=O)CCCCCCCCCC1CC2(C)C(O)CCC2C2CCC3CC(=O)CCC3(C)C12 (stereo not drawn) [Example 96] | – | 1600 | –
21 | CCCCN(C)C(=O)CCCCCCCCCC[C@@H]1CC2=CC(=O)CC[C@]2(C)[C@H]2CC[C@]3(C)[C@@H](O)CC[C@H]3[C@H]12 [EM-101, reference compound] | – | 2620 | –
22 | CNC(=O)CCCOc1cccc(CCC[C@@H]2C[C@H]3CC(=O)CC[C@]3(C)[C@H]3CC[C@]4(C)[C@@H](O)CC[C@H]4[C@H]23)c1 (stereo in doubt) [Example 164, 17β-hydroxy-7α-[3-[3-{3-(N-methylaminocarbonyl)propoxy}phenyl]propyl]-5α-androstan-3-one] | 291 | – | FI5 value (human androgen receptor [1]): ND (even when the compound was added at a concentration of 10000 nM, the transcriptional activity of the compound-treated group was less than 5 times the transcriptional activity of the control group, making it impossible to compute the FI5 value)
23 | CC(C)N(C)C(=O)CCCCCCCC1CC2CC(=O)CCC2(C)C2CCC3(C)C(O)CCC3C12 (stereo not drawn) [Example 27] | 421 | – | –
24 | CCN(C)C(=O)CCCCCCCC1CC2CC(=O)CCC2(C)C2CCC3(C)C(O)CCC3C12 (stereo not drawn) [Example 25] | – | 415 | –
25 | CCCN(C)C(=O)CCCCCCCCCC1CC2CC(=O)CCC2(C)C2CCC3(C)C(O)CCC3C12 (stereo not drawn) [Example 50] | – | 737 | –
26 | CCN(CC)C(=O)CCCCCCCC1CC2CC(=O)CCC2(C)C2CCC3(C)C(O)CCC3C12 (stereo not drawn) [Example 19] | 295 | – | –
